Laboratory results published in patent publication US20260231848A1, “A METHOD OF TREATING SEEDS AND SEEDS PRODUCED THEREBY” (RESEARCH FOUNDATION OF THE CITY UNIVERSITY OF NEW YORK, priority 2023, published 2026).

What was measured:
[1] = system: tomato seeds (4 different varieties); test: Tomato seed priming under salt stress conditions; format: in vivo; settings: for fruit yield per plant: 50 μM in 0.1% DMSO, seeds soaked 12 hours, vs untreated, hydroprimed, solvent-treated seeds
Protocol: A experiment has been carried out, whereby the effect of NOSH-A pre-treatment of tomato seeds was examined under salt stress conditions. The treatments were as follows: • Untreated tomato seeds (4 different varieties—CV1-4) • Hydroprimed seeds (soaked in dH2O) • NOSH-A control treated seeds (soaked in 0.1% DMSO) • NOSH-A primed seeds NOSH-A was initially prepared in a stock solution of 50 mM using DMSO. The working solution was made by diluting the stock in water to reach a final concentration of 50 μM in 0.1% DMSO. Seed priming was performed by soaking the seeds in NOSH-A solution for 12 hours at 25° C. Then the seeds were placed in gauze under the laminar flow for air-drying, till reaching their initial weight. The seeds were sown in plastic seedling trays (1 seed per pot) filled with sterile soil, covered with a transparent film, and let to germinate in a growth chamber room under certain conditions of 24/20° C. day/night temperatures, 60-70% RH, with a photosynthetic photon flux density of 120 μmol m^2 s^−1 and a 16/8-h photoperiod. At day 7 after sowing, seedlings were transplanted into square plastic pots filled with sterilized pot soil, transferred into a glasshouse, and let to grow until day 24. Growing plants were watered three times per week. Plants were then watered with saline solution (7.8-12.0 dS/m), while controls were watered with dH2O, until fruiting. A total of four harvests were carried out, with yield data being the total of the four harvesting events. All analyses were carried out using six independent plants per treatment.

[2] = Dissolution of the compounds for the stock solution; format: physicochemical; settings: stock solution of 100 mM; visible observation
Protocol: In order to select the optimum concentration of NOSH and NOSH-ASA, a concentration gradient was performed. To achieve the gradient, a stock solution of 100 mM was prepared. […] Therefore, it was decided to prepare a stock solution using 100% DMSO and then dilute the composition to 0.1% DMSO.

[3] = system: baby spinach cultivars (Sunangel RZ, Scarne F1PV-1656); test: Baby spinach seed priming, growth under heat stress; format: in vivo; settings: day 37-40° C., 50 μM seed priming 12 hours
Protocol: NOSH-A was initially prepared in a stock solution of 50 mM using DMSO. The working solution was made by diluting the stock in water to reach a final concentration of 50 μM in 0.1% DMSO. Seed priming was performed by soaking the seeds of two baby spinach cultivars (Sunangel RZ, Scarne F1PV-1656) in NOSH-A solution for 12 hours at 25° C. Then the seeds were placed in gauze under the laminar flow for air-drying, till reaching their initial weight. Seeds were sown in the soil in a commercial greenhouse (FIG. 6a), and let to grow until day 30. Average day temperature ranged between 37-40° C., while night temperature ranged between 21-23° C. Growing plants were watered three times per week. All agronomic analyses were carried out using a minimum of nine independent plants per treatment, while survival percentage was calculated from a total of 300 plants per treatment.

[4] = system: Arabidopsis thaliana seeds (ecotype Col-0); test: Seed treatment at pre-germination stage, plant growth (rosette fresh weight, projected rosette area); format: in vivo; settings: for concentration resulting in highest increase in fresh weight: screening at concentration gradient 0-100 μM, rosettes 22 DAS, seeds soaked 12 hrs
Protocol: Stock solutions of NOSH or NOSH-ASA were each prepared by initial dissolution in 100% DMSO. From each stock solution, treatment compositions at a 0-100 μM concentration gradient (diluted in 0.1% v/v DMSO) were prepared. Arabidopsis thaliana seeds (ecotype Col-0) were treated at their pre-germination stage with different concentrations of NOSH or NOSH-aspirin solutions (0-100 μM concentration gradient) by soaking the seeds in Petri dishes at room temperature and in the dark. After 12 hrs, the seeds were air dried for 2-3 hrs. Four seeds per pot were sown in soil medium and stratified at 4° C. for 4 days to achieve germination uniformity. Then the pots were transferred to the growth room and allowed to grow under controlled conditions of 22° C., and a 16-hr day (100-120 μmol m^−2 s^−1)/8-hr night regime for 22 days (d). Nine Days After Stratification (DAS), one seedling, which had the projected rosette area closest to the median area of the treatment, was selected from the four seedlings sown per pot. Four independent experiments were carried out using a minimum of 6-8 independent plants as replicates per experiment. Projected Rosette Area (PRA) was determined by taking pictures of the rosettes 22 days after stratification (DAS). The pictures were subsequently analyzed using ImageJ software (http://rsb.info.nih.gov/ij/) to measure the size of each plant. Represented rosette sizes were calculated by taking the average of the individual plant per repeat and then per treatment. The same rosettes were used also for fresh weight measurements. In this connection it is noted that in preliminary experiments no substantial differences between the ratio of fresh weight and the ratio of dry weight under optimum soil water content was observed. Statistical analysis was performed with SAS (Version 9.4 of the SAS System for windows 7 64 bit by using the mixed model analysis. Copyright C 2002-2012 SAS Institute Inc. Cary, NC, USA (www.sas.com). Seeds were treated by seed soaking for 12 hr with NOSH at 50 μM. Four seeds were then sown in soil medium within a pot and allowed to grow for 22 days under the conditions described above.

[5] = system: plants from treated seeds; test: Stress protection: seed priming by vacuum infiltration, plants left un-watered (drought); format: in vivo
Protocol: Seeds were treated with a NOSH composition comprising 30% methanol and the priming application method was vacuum infiltration (90 sec). […] Plants were growth on optimum condition until 37 days and then were left un-watered for 7 days. Observation on plant phenotype was performed and interesting differences on the plant appearance were recorded. […] This supported the conclusion that NOSH compounds enhance plant tolerance, (probably, however, without being bound to this hypothesis, by avoiding the accumulation of stress-related pigments such as anthocyanin).

[6] = system: Arabidopsis thaliana seeds (ecotype Col-0); test: Leaf 3 area and epidermal cell analysis of plants from treated seeds; format: in vivo; settings: 50 μM at seed level, carrier 0.1% DMSO
Protocol: For the leaf area analysis, 3rd true leaves were harvested from all the replicates and then the leaves were cleared in 100% ethanol, mounted in lactic acid on microscope slides, and photographed. Leaf areas were measured with the ImageJ software (http://rsb.info.nih.gov//ij/). Abaxial epidermal cells were drawn with a DMLB microscope (Leica) fitted with a drawing tube and a differential interference contrast objective. Drawings were scanned and analyzed using automated image analysis algorithms (Andriankaja et al. 2012). Subsequently, drawings were used to measure average cell size, from which the total pavement cell number was calculated. The stomatal index was defined as the percentage of stomata in relation to the number of epidermal cells. Statistical analysis was performed with SAS (Version 9.4 of the SAS System for windows 7 64 bit by using the mixed model analysis. Copyright C 2002-2012 SAS Institute Inc. Cary, NC, USA (www.sas.com). Finally, the ratio of leaf 3 area, pavement cell area, pavement cell number and stomata index measured on plants treated at seed level with 50 μM NOSH compared with plants received from carrier-treated seeds (seeds treated with 0.1% DMSO) were determined, the results of which is provided in FIG. 4 (values are averages of three biological repeats, with each repeat consisting of 6-8 plants).

[7] = control and high salinity conditions, 50 μM seed priming

dissolution directly in 0.1% DMSO [2] | seed germination after soaking ([5]; NOSH composition comprising 30% methanol, soaking 4 h, 12 h and 24 h, attributed to high percentage of methanol) | SMILES | fruit dry weight [1, 7] | fruit fresh weight [1, 7] | fruit yield per plant ([1]; control conditions) | fruit yield per plant ([1]; high salinity conditions (7.8-12.0 dS/m)) | average leaf area [3] | total plant leaf area [3] | survival percentage of plants ([3]; vs untreated, hydroprimed, solvent-treated seeds) | concentration resulting in highest increase in fresh weight [4] [µM] | plant phenotype / tolerance after drought ([5]; composition with 30% methanol, vacuum infiltration 90 sec, un-watered 7 days after 37 days, vs carrier-treated drought plants) | leaf 3 area, ratio to carrier-treated seeds [6] | pavement cell area, ratio to carrier-treated seeds [6] | pavement cell number, ratio to carrier-treated seeds [6] | stomata index, ratio to carrier-treated seeds [6] | growth of the leaves ([4]; 50 μM, seeds soaked 12 hr, 22 DAS, vs no NOSH treatment) | fresh weight of rosettes, ratio to carrier-treated seeds ([4]; 50 μM, seeds soaked 12 hr, 22 days, p value 0.0001) | projected rosette area (PRA) ratio, treated seeds vs carrier-treated seeds ([4]; seeds exposed before germination, carrier 0.1% DMSO) [fold] | promoting growth following treatment at the seed level ([4]; treatment of seeds before germination)
did not completely dissolve | – | O=C(CCCO[N+](=O)[O-])Oc1ccccc1C(=O)Oc1ccc(-c2cc(=S)ss2)cc1 [NOSH-ASA] | significant improvements | significant improvements | significant improvement | significant improvement | significant improvements | significant improvements | clear improvement | 10 | – | – | – | – | – | – | – | – | –
did not completely dissolve | no seed germination | O=C(CCCO[N+](=O)[O-])Oc1ccc(-c2cc(=S)ss2)cc1 [NOSH] | – | – | – | – | – | – | – | 50 | greener and with less anthocyanin on the leaves | statistically significant (p values indicated in the Figures) increase | statistically significant (p values indicated in the Figures) increase | statistically significant (p values indicated in the Figures) increase | statistically significant (p values indicated in the Figures) increase | increased growth of the leaves | statistically significant (p values indicated in the Figures) increase | > 1.5 | more effective in promoting growth as compared to NOSH-NSAID
